{"source": "patent US10857167B2", "about": "“Use of oligosaccharide compositions to enhance weight gain” (Children's Hospital Medical Center, priority 2015, dated 2020)", "key": {"[1]": {"tested_on": "small bowel luminal microbiome", "assay": "16S sequencing of small bowel luminal contents after ICR", "format": "in vivo, mouse", "from_the_text": "Luminal small bowel contents were expressed into AllProtect Tissue Reagent (Qiagen Inc, CA). Bacterial DNA was extracted using the AllPrep DNA/RNA Mini Kit (Qiagen Inc, CA), according to kit instructions and prior to sequencing (described below). Small bowel tissue samples for RNA were placed into RNA Later (Life Technologies, NY). RNA extraction was accomplished following Qiagen RNeasy Plus Kit instruction (Qiagen Inc, CA). All nucleic acid samples were then stored at −80 Celsius until sequenced (described below).\nFollowing bacterial community DNA extraction from harvested small bowel contents obtained from operated mice taken to 8 weeks, samples were quantified using the Qubit ssDNA kit (Life Technologies, NY). The V3 and V4 regions of the 16S gene were then amplified and tagged with region-specific primers (Illumina flowcell compatible sequences), permitting sequencing of up to 576 individual bacterial communities on the same flowcell. Fadrosh et al. (2014) Microbiome 2:6. Two positive and 2 negative controls were included in each run. FastStart Taq kit (Roche Applied Science, Indianapolis, Ind.) was used for thermocycling then equal volumes of each amplicon were pooled and cleaned using the QIAquick PCR cleanup column (Qiagen, MD). The size of library pools was then verified using the Fragment Analyzer CE (AATI, Ames Iowa) and quantified using the Qubit high sensitivity dsDNA kit. Dilution to 1 nM and addition of PhiX V3 library (Illumina, Calif.) was followed by denaturation and further dilution to 12 pM in Illumina's HT1 buffer. The pool was then loaded to the Illumina MiSeq V2 500 cycle kit cassette, a sample sheet prepared, and the MiSeq run was initiated for FASTQ generation.\nThe 16S rRNA amplicon sequences were assembled and processed using an integrated, high-throughput analysis pipeline established at Cincinnati Children's Hospital Medical Center. Paired-end reads were assembled and quality filtered using Pandaseq v2.8. Masella et al. (2012) BMC bioinformatics 13: 31. Reads with ambiguous base calls, minimum overlap of 10 nt, or <425 nt were culled. Demultiplexing and removal of barcodes and primers was performed using the FastX-toolkit. Pearson et al. (1997) Genomics 46: 24-36. De novo clustering at 97% sequence similarity and chimera filtering was performed using UPARSE v7. Edgar (2013) Nature methods 10: 996-998. UCLUST, as implemented in QIIME v1.8, was used for taxonomic classification to the Greengenes v13.8 database. Caporaso et al. (2010) Nature methods 7: 335-336; Edgar (2010) Bioinformatics 26: 2460-2461; and McDonald et al. (2012) The ISME journal 6: 610-618. PyNast and FastTree were used to align sequence reads and construct a phylogenetic tree. Caporaso et al. (2010) Bioinformatics 26: 266-267; and Price et al. (2010) PloS one 5: e9490; Price M N et al. (2009) Molecular biology and evolution 26: 1641-1650. Additional integrated analyses included QIIME scripts for the generation of alpha and beta diversity metrics, corresponding visualizations, and summaries and plots of taxonomic composition. Alpha and beta diversity metrics were computed after subsampling to the lowest observed read depth (n=7,793 reads).\nIn order to estimate the treatment effect on alpha diversity metrics adjusted for housing cohort, a generalized ANCOVA model was used. The Chaol, Shannon, Simpson and Faith's Phylogenetic Diversity indices were examined. Differences between groups in community composition post-treatment, as measured by the weighted and unweighted UniFrac metrics (Lozupone and Knight (2005) Applied and environmental microbiology 71: 8228-8235) were tested by permutational ANOVA as implemented by the ADONIS function in the R package vegan. Oksanen et al. (2015) Vegan: Community Ecology Package. 2015; and Team (2015) R: A language and environment for statistical computing R Foundation for Statistical Computing [http://www.R-project.org/. 2015]. […]"}, "[2]": {"tested_on": "mouse model of adaptation following extensive ileocecal resection (ICR)", "assay": "Weight change after ileocecal resection (ICR) in mice", "format": "in vivo", "details": "for weight / weight gain compared to control after ICR: 56 day experiment, on and beyond postoperative day 21", "from_the_text": "A mouse model of adaptation following intestinal resection was previously reported. Under the aid of an operating microscope and utilizing sedation with 2% isoflurane, a midline incision was made […] and the bowel was eviscerated (FIG. 7). […] Intestinal continuity was restored by end-to-end anastomosis and the abdomen of mice was closed (FIG. 9). The mice received one dose of intraperitoneal broad-spectrum antibiotics. In particular, C57 Black 6 mice of 8 to 10 weeks in age were subjected to ileocecal resection (FIG. 11). 5 animals were carried to post-operative day 56 in the usual fashion. Seven animals were carried to the same time point but supplemented with 2'Fucosyllactose. 2'FL was added to both liquid diet (LD) and standard diet (SD) with water to achieve a final concentration of 21⁄2 grams per liter. All animals were weighed once daily during the first week then once every other day thereafter. Male C57BL/6 mice (Jackson Labs, Me.) of 8 to 10 weeks of age were weighed and started on an exclusive polymeric formula diet one day prior to experiment start (Jevity 1 Cal, Abbott Nutrition, Columbus, Ohio). All mice were administered one dose of intraperitoneal Zosyn (at approximately 100 mg/kg) on experiment day 0. All animals were grouped by operation status and subgrouped into treatment and control arms (Table 4). Liquid diet was refreshed and weights obtained daily for 7 days then all mice were transitioned to a standard chow diet with access to water. Animals in both groups were weighed every other day and taken to 21 or 56 days for experiment completion. All animal studies were approved by the Cincinnati Children's Hospital Medical Center Institutional Animal Care and Use Committee. Non-operated animals were maintained as described above. Operated animals were taken to the operating room on experimental day 0 and underwent ileocecal resection (ICR) as previously described in […] et al. (2007) American journal of physiology Gastrointestinal and liver physiology 293: G1013-1022. Under the aid of an operating microscope and utilizing sedation with 2% isoflurane, a midline incision was made and the bowel eviscerated. The ileocecal junction was identified and approximately 12 cm of ileum and cecum were resected. Resected small bowel tissue and luminal contents were collected as described below. Intestinal continuity was restored by end-to-end anastomosis and the abdomen was closed (FIG. 28). ICR mice were then assigned to control or treatment subgroups, were administered analgesia with subcutaneous buprenorphine (0.05-0.1 mg/kg) and recovered overnight in a standard neonatal incubator warmed to approximately 38 degrees Celsius. Control (non-operated) animals were maintained as described above. Beginning on experiment day 0, treatment animals were supplemented with 2'-Fucosyllactose. 2'-FL was added to formula then water to a final concentration of 2.5 grams per liter. Formula was refreshed daily and water refreshed every other day. […] Intestinal length was compared across groups using the Wilcoxon rank-sum test as values were not normally distributed. Histologic count data was averaged per mouse across two samples and compared by the Wilcoxon rank-sum test. Weight data was analyzed using Stata version 13.0 (StataCorp LP, TX). Remaining morphometric and histologic data were analyzed using GraphPad Prism version 5 (GraphPad Software Inc, CA)."}, "[3]": {"details": "luminal contents, postop vs preop"}}, "note": "“Also recorded” adds a separate entry of the source.", "data": [{"smiles": "C[C@@H]1O[C@@H](O[C@H]2[C@H](O[C@H]3[C@H](O)[C@@H](O)C(O)O[C@@H]3CO)O[C@H](CO)[C@H](O)[C@@H]2O)[C@@H](O)[C@H](O)[C@@H]1O", "note": "(stereo partly shown) [2′-FL, 2′-fucosyllactose]", "values": [{"measurement": "relative abundance of Enterobacteriaceae after resection compared to control", "setting": "[1]; [3]", "result": "greater decline"}, {"measurement": "relative abundance of Lachnospiraceae after resection compared to control", "setting": "[1]; [3]", "result": "relatively larger bloom"}, {"measurement": "weighted or unweighted UniFrac metrics compared to control", "setting": "[1]; post-treatment, 8 weeks after ICR", "result": "Nor were differences in the weighted or unweighted UniFrac metrics detected"}, {"measurement": "other alpha-diversity metrics examined (Chao1, Simpson, Faith's Phylogenetic Diversity) compared to control", "setting": "[1]; small bowel luminal contents 8 weeks after ICR", "result": "No differences were detected"}, {"measurement": "microbial alpha diversity by Shannon diversity index compared to control", "setting": "[1]; small bowel luminal contents 56 days after ICR", "result": "significant increase; also recorded: increased; also recorded: greater alpha diversity"}, {"measurement": "enrichment of sequence reads of genus Parabacteroides (OTU_146) compared to controls", "setting": "[1]; small bowel luminal contents 56 days after ICR, adjusted for housing cohort", "result": 4.1, "unit": "log 2-fold"}, {"measurement": "increase in microbes of the genus Parabacteroides compared to controls", "setting": "[1]; supplemented, resected animals", "result": "> 4", "unit": "fold"}, {"measurement": "time to return to preoperative weight after ICR", "setting": "[2]; 2′-FL supplemented ICR subgroup", "result": "3 to 4", "unit": "weeks"}, {"measurement": "body weight lost during the first postoperative week", "setting": "[2]; 2′-FL supplemented ICR subgroup, 2.5 grams per liter in formula then water", "result": "approximately 10%"}, {"measurement": "weight / weight gain compared to control after ICR", "setting": "[2]", "result": "improved growth; also recorded: increased weight gain; also recorded: gained more weight"}, {"measurement": "weight / weight gain compared to control after ICR", "setting": "[2]; listed as 2′FL", "result": "improved late-term weight-gain profile"}, {"measurement": "weight difference between control and 2′-FL supplemented subgroups", "setting": "[2]; animals taken to harvest at postoperative day 21", "result": "no significant weight difference"}, {"measurement": "percent of preoperative body weight achieved", "setting": "[2]; at 56 days after ICR, 2′-FL supplemented ICR subgroup", "result": 110, "unit": "%"}]}]}
